{"source": "patent US6576780B1", "about": "“Hydroxyamidino derivatives useful as nitric oxide synthase inhibitors” (GD Searle & Company, priority 1996, dated 2003)", "key": {"[1]": {"target": "T1, mouse inducible NOS (miNOS) (Mus musculus, UniProt P29477)", "T1 construct": "prepared from an extract of LPS-treated mouse RAW 264.7 cells; endogenous in cells; host or cells: LPS-treated mouse RAW 264.7 cells", "assay": "Citrulline assay for nitric oxide synthase, miNOS", "assay_type": "biochemical", "conditions": "partially purified enzyme from LPS-treated RAW 264.7 cells", "description": "(§1) NOS activity was measured by monitoring the conversion of L-[2,3-^3H]-arginine to L-[2,3- H]-citrulline. Mouse inducible NOS (miNOS) was prepared from an extract of LPS-treated mouse RAW 264.7 cells and rat brain constitutive NOS (rnNOS) was prepared from an extract of rat cerebellum. Both preparations were partially purified by DEAE-Sepharose chromatography. Enzyme (10 μL) was added to 40 μL of 50 mM Tris (pH 7.6) and the reaction initiated by the addition of 50 μL of a solution containing 50 mM Tris (pH 7.6), 2.0 mg/mL bovine serum albumin, 2.0 mM DTT, 4.0 mM CaCl2, 20 μM FAD, 100 &M tetrahydrobiopterin, 2.0 mM NADPH and 60 μM L-arginine containing 0.9 μCi of L-[2,3-^3H]-arginine. For constitutive NOS, calmodulin was included at a final concentration of 40 nM. Following incubation at 37° C. for 15 minutes, the reaction was terminated by addition of 300 μL cold buffer containing 10 mM EGTA, 100 mM HEPES (pH 5.5) and 1.0 mM L-citrulline. The [^3H]-citrulline was separated by chromatography on Dowex 50W X-8 cation exchange resin and radioactivity quantified with a liquid scintillation counter."}, "[2]": {"target": "T2, rat brain constitutive NOS (rnNOS) (Rattus norvegicus, UniProt P29476)", "T2 construct": "was prepared from an extract of rat cerebellum; from tissue; host or cells: rat cerebellum", "assay": "Citrulline assay for nitric oxide synthase, rnNOS", "assay_type": "biochemical", "conditions": "partially purified enzyme from rat cerebellum", "description": "as §1"}, "RAW 264.7 cells": {"test_system": "RAW 264.7 cells", "assay": "Raw cell nitrite assay", "assay_type": "cell-based", "conditions": "Mus musculus, RAW264.7, cultured RAW 264.7 cells, LPS-induced", "description": "RAW 264.7 cells are plated to confluency on a 96-well tissue culture plate grown overnight (17 h) in the presence of LPS to induce NOS. A row of 3-6 wells were left untreated and served as controls for subtraction of nonspecific background. The media was removed from each well and the cells are washed twice with Kreb-Ringers-Hepes (25 mM, pH 7.4) with 2 mg/ml glucose. The cells are then placed on ice and incubated with […] of buffer containing L-arginine (30 mM) +/− inhibitors for 1 h. The assay is initiated by warming the plate to 37° C. in a water bath for 1 h. Production of nitrite by intracellular iNOS is linear with time. To terminate the cellular assay, the plate of cells is placed on ice and the nitrite-containing buffer removed and analyzed for nitrite using a previously published fluorescent determination for nitrite. T. P. Misko et al, Analytical Biochemistry, 214, 11-16 (1993). All values are the average of triplicate wells and are compared to a background-subtracted induced set of cells (100% value)."}, "[3]": {"target": "recombinant human inducible NOS (hiNOS) (Homo sapiens, UniProt P35228)", "assay": "Human in vitro enzyme data, hiNOS", "assay_type": "biochemical"}, "[4]": {"target": "recombinant human endothelial constitutive NOS (hecNOS) (Homo sapiens, UniProt P29474)", "assay": "Human in vitro enzyme data, hecNOS", "assay_type": "biochemical"}, "[5]": {"target": "recombinant human neuronal constitutive NOS (hncNOS) (Homo sapiens, UniProt P29475)", "assay": "Human in vitro enzyme data, hncNOS", "assay_type": "biochemical"}, "[6]": {"test_system": "plasma nitrites induced by endotoxin (LPS)", "assay": "In vivo low-endotoxin (Low Dose LPS) assay", "design": "species or system rat", "conditions": "rats, LPS i.p., plasma nitrites 5 hours post-treatment", "description": "Rats were treated with an intraperitoneal injection of 10 mg/kg of endotoxin (LPS) with or without oral administration of the nitric oxide synthase inhibitors. Plasma nitrites were measured 5 hours post-treatment."}}, "note": "Counter-ions that a name gives are not always drawn.", "data": [{"smiles": "C/C(=N\\O)NCCCC[C@H](N)C(=O)O", "note": "[Example 1, N^6-[1-(Hydroxyimino)ethyl]-L-lysine, Dihydrochloride]", "values": [{"measurement": "IC50", "setting": "[1]", "result": 77, "unit": "µM"}, {"measurement": "IC50", "setting": "[2]", "result": 1.47, "unit": "mM"}, {"measurement": "IC50", "setting": "RAW 264.7 cells", "result": 28, "unit": "µM"}, {"measurement": "IC50", "setting": "[3]", "result": 154, "unit": "µM"}, {"measurement": "IC50", "setting": "[4]", "result": 1.47, "unit": "mM"}, {"measurement": "IC50", "setting": "[5]", "result": 907, "unit": "µM"}, {"measurement": "Inhibition of LPS-induced plasma nitrite", "setting": "[6]; 0.1 mg/kg/day p.o.", "result": 0, "unit": "% inh."}, {"measurement": "Inhibition of LPS-induced plasma nitrite", "setting": "[6]; 1 mg/kg/day p.o.", "result": 54, "unit": "% inh."}, {"measurement": "Inhibition of LPS-induced plasma nitrite", "setting": "[6]; 10 mg/kg/day p.o.", "result": 97, "unit": "% inh."}]}]}
